Literature values, collected in patent publication US7700588B2, “Pharmaceutical compositions comprising midazolam in a high concentration” (priority 2004, dated 2010).
Like-named read-outs stand apart in the source and are kept apart here.

What was measured:
[1] = for mean absolute bioavailability: injection solutions
[2] = tested on: intestinal drug efflux transporter; settings: orally delivered
[3] = free base, pH 7.5
[4] = not given; remark: listed apart in the source
[5] = nasal 0.2 mg/kg
[6] = after nasal administration, 0.2 to 0.25 mg/kg
[7] = commercial intravenous solutions 5 mg/ml, pH 3.3 to 3.5

In the case of `Cc1ncc2n1-c1ccc(Cl)cc1C(c1ccccc1F)=NC2` [midazolam], the “time for which therapeutically effective plasma concentrations are maintained” value [1, 6] is listed as “about 1 hour”, the “time until therapeutically effective plasma concentrations are manifest” value [1, 6] is listed as 3 min and the “time to maximum plasma concentrations” value ([1]; intranasal) is listed as 5 to 15 min. For the same molecule, the mean absolute bioavailability ([1]; intranasal, adult surgical patients) was 83%, the mean absolute bioavailability ([1]; intranasal, children) was 50% and the mean absolute bioavailability ([1]; intranasal, healthy volunteers) was 55%. The transporter substrate [2] was “substrate for the intestinal drug efflux transporter”, the “share in the ring-closed form” value [7] was 80-85% and the “share in the ring-open form” value [7] was 15-20%. For the same molecule, the “state of the ring when pH is increased” value (pH increased to 7.4) was “completely closed”, the “partition coefficient between octanol and phosphate buffer” value [3] was “about 475” and the onset of action ([4]; intranasal, children and adults) was “about 10 minutes”. For the same molecule, the “clinical effect in children undergoing diagnostic and minor surgical procedures” value ([4]; nasal 0.2 mg/kg) was “sedative and anxiolytic effects”, the “effect on seizures and EEG in epileptic children” value ([4]; nasal 0.2 mg/kg) was “suppresses acute seizures and improves the EEG background” and the “side effects in children” value [5] was “none of the children had clinical signs of respiratory depression, bradycardia or other side effects”.
